From patent US20070072251A1, “In vivo imaging using peptide derivatives” (CTT Cancer Targeting Technologies OY, priority 2003, published 2007)
Where a SMILES comes first, the peptide text is derived from it. Bridges are numbered along the chain shown (N, C = ends). Where no end group is shown, it is not given here. The star is where a group is joined. DTPA = O=C(O)CN(CCN(CC(=O)O)CC(=O)O)CCN(CC(=O)O)CC(=O)*

Key:
[1] = Tumor targeting of radiolabelled LLG derivatives in mouse model of human myelomonocytic leukemia (gamma imaging, tissue counting); type: in vivo; details: mouse, in vivo, total radioactivity; at 24 hrs, intravenous injection, U937 model; read-out: absolute tumor-to-blood ratio
Text: (§1) I-125 label, mouse model of human myelomonocytic leukemia. Planar gamma image. In these figures animals have been injected with radiolabelled peptide and anesthesized animals have been imaged under gamma camera (pinhole collimator, Picker SX-300 gamma camera).
(§2) The radiolabelled peptide derivatives were imaged at different time points using gamma camera in order to study tumor uptake in vivo as a function of time. After last imaging, tumor tissue were extirpated and counted for radioactivity. Detailed microdistribution was studied using quantitative autoradiography.
(§3) The peptide was labelled using In-111 label and direct iodination, as well as cDTPA.
(§4) The peptide was labelled using In-111 label and direct iodination and cDTPA. […] In this model absolute tumor-to-blood ratio was 4.7 at 24 hrs.

[2] = test system: human myelomonocytic leukemia U937 cell line; test: as above; type: in vivo
Text: as §1, §2, §3, §4

integrin I-domain = test: BIACORE affinity of LLG to integrin; type: binding; details: 134 nM-134 μM; not detectable due to the small size of the peptide
Method: We examined the affinity of LLG to integrin using BIACORE. In this method, purified integrin I-domain was immobilized on the gold coated carboxymethylated dextran chip. The immobilization succeeded, and in various channels a RU between 2000-4000 was obtained. Various concentrations (3.3 nM-33 μM) of LLG-GST or GST were tested for their ability to bind to the I-domain. Reaction buffer was 10 mM HEPES (pH 7.4)-150 mM NaCl, with or without 1 mM MgCl2. […] Addition of detergent P20 0.05% could not diminish the background.
In another set of experiment, plain LLG peptide was used for affinity testing. The concentration of the tested peptide varied between 134 nM-134 μM. […] The BIACORE method is currently under development, and we intend to study the affinity again with a peptide coupled to a higher molecular weight, inert carrier molecule.

[3] = Biodistribution of I-125 labelled LLG in mice; type: in vivo; details: 30 min and 180 min after tail vein injection
Method: LLG (YADGACPCFLLGCC) was labelled with I-125, and the purified peptide (40 μg; ˜500 kBq) was injected into the tail vein of mice in the volume of […]. At 30 min and 180 min after peptide injection, the mice were sacrificed and their blood and tissues were collected to measure the radioactivity. Results are expressed as percentage of injected dose per 1.0 g tissue (% D/g) (FIG. 11). All values are indicated as the mean±SD of 3 mice.

E. coli abscess = test: LLG targeting to E. coli abscess in rabbits (gamma camera imaging, gamma-counter biodistribution); type: in vivo, New Zealand White rabbits
Method: (§5) In this experiment, the targeting of LLG to sites of inflammation was examined in Wistar rats and New Zealand White rabbits, by inducing an abscess with approximately 1×10^9 colony-forming units of Staphylococcus aureus or Escherichia coli injected into the left tight muscle. During the procedure, the animals were anesthetized. After 24 hours, when swelling of the muscle was apparent, the In-111 radiolabeled peptide CPCFLLGCC was injected i.v. and accumulation of the peptide was followed with gamma camera imaging. The peptide was tested using 3 animals in both animal species.
The animals were followed-up for 4 hours. In late images urinary excretion disturbed the imaging, but signal-to-background ratio remained high. No other targets than abscess could be detected. Imaging would have been even more successful, if the rabbits would have been catheterized (or bladder emptied) before imaging session.
(§6) After the imaging period, animals were sacrificed, various tissues were collected and the accumulated radioactivity was measured using a gamma-counter. In FIG. 7A, the amount of accumulated peptide (expressed as percentage of injected dose/weight of the tissue measured; % ID/g) is shown for certain tissues of rabbits (mean of 3 animals). […] In these animals, the corresponding ratios were 4.5 and 2.0 for muscle and blood, respectively.

S. aureus abscess = test: LLG targeting to S. aureus abscess in rats (gamma camera imaging, gamma-counter biodistribution); type: in vivo, Wistar rats
Method: as §5
In rats assay, animals were followed-up for 2 hours after peptide injection. […] However, signal-to-background ratio remained high, and as in rabbits, no other targets than abscess could be detected.
as §6

[4] = test system: accumulation of cells in peritoneal cavity; test: Inhibition of leukocyte migration into thioglycolate inflamed peritoneal cavity; type: in vivo, Balb/c mice; details: 1 mg/kg iv
Method: To induce inflammation, female Balb/c mice were injected intraperitoneally with 1 ml of 3% Thioglycolate Broth (TG), three animals/group. Mice in the control group were injected iv with plain vehicle PBS-10% DMSO, and mice in the peptide group were injected iv with 1 mg/kg YADGACPCFLLGCC in PBS-10% DMSO. After 60 or 120 minutes, the mice were sacrificed. Cells in peritoneal cavity were collected by lavage with 5 ml PBS-5 mM EDTA, and counted with a hemocytometer.
In this experiment different cell populations were not distinguished. However, once again, YADGACPCFLLGCC reduced the accumulation of cells in experimental inflammation in vivo by 78% after 60 minutes and 52% after 120 minutes (FIG. 9).

THP-1 cell line = test: Blocking of LLG-GFP binding to THP-1 cell line; type: cell-based
Method: What has been observed is that at 50 μM YLLG concentration 95% of LLG-GFPs binding is been blocked. When concentrations are been lowered to 20 μM still 70% inhibition occurs. […] However, due to the unspecific binding of peptide to the plastic walls of the container and the relative high concentrations of LLG-GFP needed for signal nanomolar scale, experiments can not been performed with this setup on its current already un-optimized state.

[5] = % ID/g, mean of 3 animals, after imaging period

## CC(C)C[C@@H]1NC(=O)[C@H](CC(C)C)NC(=O)[C@H](Cc2ccccc2)NC(=O)[C@@H]2CSSC[C@@H](C(=O)O)NC(=O)[C@H](CSSC[C@H](NC(=O)[C@H](C)NC(=O)CNC(=O)[C@H](CC(=O)O)NC(=O)[C@H](C)NC(=O)[C@H](Cc3ccc(O)cc3)NC(=O)CN(CCN(CCN(CC(=O)O)CC(=O)O)CC(=O)O)CC(=O)O)C(=O)N3CCC[C@H]3C(=O)N2)NC(=O)CNC1=O [In-111-YADGA LLG, metal not drawn] ({DTPA}-YADGACPCFLLGCC-OH; disulfide 6-13, 8-14 (inferred); N-terminus and C-terminus assumed)
[1]
  tissue to tissue ratio at 24 h: 4.7
[2]; at 3 hrs after intravenous injection, FIG. 1
  tumor targeting (gamma image): clearly tumor targeting

## CPCFLLGCC [nonapeptide with two disulfide bridges, ligand to leukocyte β2 integrins]
Integrin I-domain
  specific binding to immobilized integrin I-domain: no specific binding could be detected

## I-125-YADGA LLG peptide: YADGACPCFLLGCC labelled with I-125 by direct iodination (cysteine pairing not given here; also: I-125 label by direct iodination)
[2]; at 24 hrs after intravenous injection, FIGS. 2-3
  tumor targeting (planar gamma image): tumor targeting
[3]
  clearance: rapid clearance through kidneys
[3]; 40 μg
  tissue accumulation: did not accumulate in any tissue

## In-111 radiolabeled peptide CPCFLLGCC: In-111 radiolabeled peptide CPCFLLGCC, cDTPA chelation (cysteine pairing not given here; also: In-111 radiolabel, cDTPA chelation)
E. coli abscess
  signal-to-background ratio in late images: remained high
E. coli abscess; [5]
  accumulation in abscess compared to blood: 2.3 fold
  accumulation in abscess compared to muscle: 21.7 fold
E. coli abscess; E. coli abscess in thigh muscle, i.v., followed 4 hours
  abscess targeting in gamma camera imaging: specific targeting into tight muscle, which was clearly visible within one hour
E. coli abscess; i.v.
  clearance: rapid clearance through kidneys
S. aureus abscess
  signal-to-background ratio in late images: remained high
S. aureus abscess; S. aureus abscess, followed 2 hours
  abscess targeting in gamma camera imaging: specific targeting
S. aureus abscess; after imaging period
  accumulation ratio abscess to blood: 2.0
  accumulation ratio abscess to muscle: 4.5

## YADGACPCFLLGCC
[4]; after 60 minutes
  reduction of accumulation of cells in experimental inflammation: 78%
[4]; after 120 minutes
  reduction of accumulation of cells in experimental inflammation: 52%
THP-1 cell line; 20 μM YLLG
  inhibition of LLG-GFPs binding: 70%
THP-1 cell line; 50 μM YLLG
  LLG-GFPs binding blocked: 95%
THP-1 cell line; judged from FIG. 12
  IC 50 of blocking LLG-GFP binding: on nanomolar scale
